Source: the kinase profiling compilation of Christmann-Franck et al. (2016)

How the values were obtained:
Assay in all cases: KINOMEscan competition binding
Conditions in all cases: compound 10.0 µM
BLK (human) = BLK (human) (UniProt P51451)
BMPR1B (human) = BMPR1B (human) (UniProt O00238)
CAMK1G (human) = CAMK1G (human) (UniProt Q96NX5)
CDK13 (human) = CDK13 (human) (UniProt Q14004)
CDK4 CCND1 (human) = CDK4 CCND1 (human) (UniProt P11802+P24385)
CHEK1 (human) = CHEK1 (human) (UniProt O14757)
CLK1 (human) = CLK1 (human) (UniProt P49759)
CSNK1G3 (human) = CSNK1G3 (human) (UniProt Q9Y6M4)
DAPK3 (human) = DAPK3 (human) (UniProt O43293)
DCLK2 (human) = DCLK2 (human) (UniProt Q8N568)
[1] = tested on: EGFR (human), P00533 [747-751 del / S ins]
EPHA5 (human) = EPHA5 (human) (UniProt P54756)
EPHB2 (human) = EPHB2 (human) (UniProt P29323)
ERN1 (human) = ERN1 (human) (UniProt O75460)
FGFR3 (human) = FGFR3 (human) (UniProt P22607)
GSK3B (human) = GSK3B (human) (UniProt P49841)
HIPK1 (human) = HIPK1 (human) (UniProt Q86Z02)
KDR (human) = KDR (human) (UniProt P35968)
Chain of KDR (human) (P35968 whole entry, looked up): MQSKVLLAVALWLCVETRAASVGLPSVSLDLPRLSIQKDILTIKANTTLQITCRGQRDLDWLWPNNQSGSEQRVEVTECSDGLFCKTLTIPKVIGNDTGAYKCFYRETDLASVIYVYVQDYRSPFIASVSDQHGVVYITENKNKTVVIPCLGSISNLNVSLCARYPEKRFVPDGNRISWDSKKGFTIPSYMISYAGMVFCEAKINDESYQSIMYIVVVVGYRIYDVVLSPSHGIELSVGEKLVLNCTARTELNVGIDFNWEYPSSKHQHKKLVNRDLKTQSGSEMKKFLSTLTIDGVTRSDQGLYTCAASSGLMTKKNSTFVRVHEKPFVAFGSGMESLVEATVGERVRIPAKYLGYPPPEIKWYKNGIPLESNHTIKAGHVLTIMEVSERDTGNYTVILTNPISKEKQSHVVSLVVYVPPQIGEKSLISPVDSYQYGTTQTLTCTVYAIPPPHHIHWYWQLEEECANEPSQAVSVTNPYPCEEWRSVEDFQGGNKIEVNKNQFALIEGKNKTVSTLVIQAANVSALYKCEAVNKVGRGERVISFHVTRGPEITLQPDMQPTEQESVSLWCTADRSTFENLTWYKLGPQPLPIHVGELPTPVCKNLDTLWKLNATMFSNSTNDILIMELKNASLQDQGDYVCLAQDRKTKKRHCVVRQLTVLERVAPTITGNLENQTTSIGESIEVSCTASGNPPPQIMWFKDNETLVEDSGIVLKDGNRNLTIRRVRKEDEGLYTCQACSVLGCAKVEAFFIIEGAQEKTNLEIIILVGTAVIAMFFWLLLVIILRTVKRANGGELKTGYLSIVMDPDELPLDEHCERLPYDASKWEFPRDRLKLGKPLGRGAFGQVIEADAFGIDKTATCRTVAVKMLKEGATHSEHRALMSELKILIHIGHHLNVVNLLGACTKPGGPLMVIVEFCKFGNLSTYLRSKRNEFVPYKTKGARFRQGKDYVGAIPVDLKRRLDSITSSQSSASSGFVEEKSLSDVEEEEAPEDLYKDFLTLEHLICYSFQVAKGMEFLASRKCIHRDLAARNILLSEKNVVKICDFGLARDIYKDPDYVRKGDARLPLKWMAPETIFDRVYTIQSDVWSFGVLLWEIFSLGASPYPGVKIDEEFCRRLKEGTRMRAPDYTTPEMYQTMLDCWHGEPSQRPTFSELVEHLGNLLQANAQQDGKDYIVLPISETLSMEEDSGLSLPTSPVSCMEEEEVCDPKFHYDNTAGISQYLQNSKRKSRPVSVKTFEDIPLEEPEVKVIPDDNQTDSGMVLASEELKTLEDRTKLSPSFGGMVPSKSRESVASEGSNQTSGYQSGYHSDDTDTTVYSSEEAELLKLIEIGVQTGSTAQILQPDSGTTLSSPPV

LATS2 (human) = LATS2 (human) (UniProt Q9NRM7)
MAP2K1 (human) = MAP2K1 (human) (UniProt Q02750)
MAP3K4 (human) = MAP3K4 (human) (UniProt Q9Y6R4)
Chain of MAP3K4 (human) (Q9Y6R4 whole entry, looked up): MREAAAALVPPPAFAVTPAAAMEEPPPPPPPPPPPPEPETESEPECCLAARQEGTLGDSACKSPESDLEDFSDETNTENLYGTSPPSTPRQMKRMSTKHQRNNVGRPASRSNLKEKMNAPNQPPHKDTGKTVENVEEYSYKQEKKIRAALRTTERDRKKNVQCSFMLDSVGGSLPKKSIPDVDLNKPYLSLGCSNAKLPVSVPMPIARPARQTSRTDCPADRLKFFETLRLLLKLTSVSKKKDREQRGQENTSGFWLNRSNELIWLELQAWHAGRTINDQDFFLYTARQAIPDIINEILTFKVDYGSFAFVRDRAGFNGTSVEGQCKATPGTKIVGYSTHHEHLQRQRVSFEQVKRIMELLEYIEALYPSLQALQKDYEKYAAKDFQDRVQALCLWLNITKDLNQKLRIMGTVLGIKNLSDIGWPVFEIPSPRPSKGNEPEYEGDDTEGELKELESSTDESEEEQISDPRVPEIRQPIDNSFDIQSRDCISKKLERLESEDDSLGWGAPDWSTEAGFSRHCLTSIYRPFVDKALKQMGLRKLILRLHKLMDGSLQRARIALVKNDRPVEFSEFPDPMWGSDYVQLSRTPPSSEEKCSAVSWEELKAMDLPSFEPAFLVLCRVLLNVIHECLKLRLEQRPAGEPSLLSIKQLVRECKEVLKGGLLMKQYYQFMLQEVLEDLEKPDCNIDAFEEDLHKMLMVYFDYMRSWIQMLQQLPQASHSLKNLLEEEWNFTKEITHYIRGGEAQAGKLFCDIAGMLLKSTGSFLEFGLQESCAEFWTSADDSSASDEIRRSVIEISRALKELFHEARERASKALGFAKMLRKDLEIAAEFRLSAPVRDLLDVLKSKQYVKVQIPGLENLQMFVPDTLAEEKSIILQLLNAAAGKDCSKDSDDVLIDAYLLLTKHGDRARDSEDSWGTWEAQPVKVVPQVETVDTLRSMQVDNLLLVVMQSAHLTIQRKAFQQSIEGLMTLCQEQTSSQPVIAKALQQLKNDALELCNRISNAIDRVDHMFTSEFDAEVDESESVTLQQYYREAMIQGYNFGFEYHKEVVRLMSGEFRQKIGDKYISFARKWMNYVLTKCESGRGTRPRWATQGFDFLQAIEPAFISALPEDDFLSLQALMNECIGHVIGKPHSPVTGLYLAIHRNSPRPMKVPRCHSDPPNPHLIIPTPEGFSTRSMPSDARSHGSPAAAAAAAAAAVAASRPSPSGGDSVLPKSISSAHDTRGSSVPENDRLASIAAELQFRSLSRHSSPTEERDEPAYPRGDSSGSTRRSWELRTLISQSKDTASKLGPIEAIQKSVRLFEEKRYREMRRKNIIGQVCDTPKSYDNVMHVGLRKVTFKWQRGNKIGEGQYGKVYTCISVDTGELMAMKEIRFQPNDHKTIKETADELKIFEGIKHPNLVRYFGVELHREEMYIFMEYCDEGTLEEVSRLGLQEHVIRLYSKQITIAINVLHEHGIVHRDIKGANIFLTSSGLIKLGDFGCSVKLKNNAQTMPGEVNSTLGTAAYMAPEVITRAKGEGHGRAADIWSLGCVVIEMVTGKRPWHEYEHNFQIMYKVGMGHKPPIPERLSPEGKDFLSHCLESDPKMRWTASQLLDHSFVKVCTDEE

MAP4K3 (human) = MAP4K3 (human) (UniProt Q8IVH8)
MAPK10 (human) = MAPK10 (human) (UniProt P53779)
MAPK7 (human) = MAPK7 (human) (UniProt Q13164)
MKNK1 (human) = MKNK1 (human) (UniProt Q9BUB5)
PAK4 (human) = PAK4 (human) (UniProt O96013)
Chain of PAK4 (human) (O96013 whole entry, looked up): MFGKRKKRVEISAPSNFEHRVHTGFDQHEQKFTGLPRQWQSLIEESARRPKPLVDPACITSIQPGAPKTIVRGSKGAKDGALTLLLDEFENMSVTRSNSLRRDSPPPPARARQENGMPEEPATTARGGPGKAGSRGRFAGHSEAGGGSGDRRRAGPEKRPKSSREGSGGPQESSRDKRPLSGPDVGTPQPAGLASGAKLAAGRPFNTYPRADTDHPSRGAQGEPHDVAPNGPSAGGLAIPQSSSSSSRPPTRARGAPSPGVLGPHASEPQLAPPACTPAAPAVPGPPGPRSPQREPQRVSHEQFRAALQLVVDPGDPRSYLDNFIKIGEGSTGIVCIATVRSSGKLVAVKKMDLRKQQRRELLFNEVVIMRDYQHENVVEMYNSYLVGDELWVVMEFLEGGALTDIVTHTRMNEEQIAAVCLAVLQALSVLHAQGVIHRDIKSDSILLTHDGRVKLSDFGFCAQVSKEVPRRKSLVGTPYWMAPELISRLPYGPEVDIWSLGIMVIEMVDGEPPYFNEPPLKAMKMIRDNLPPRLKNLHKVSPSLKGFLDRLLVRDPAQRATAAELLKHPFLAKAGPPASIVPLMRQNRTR

PIM3 (human) = PIM3 (human) (UniProt Q86V86)
PKN1 (human) = PKN1 (human) (UniProt Q16512)
Chain of PKN1 (human) (Q16512 whole entry, looked up): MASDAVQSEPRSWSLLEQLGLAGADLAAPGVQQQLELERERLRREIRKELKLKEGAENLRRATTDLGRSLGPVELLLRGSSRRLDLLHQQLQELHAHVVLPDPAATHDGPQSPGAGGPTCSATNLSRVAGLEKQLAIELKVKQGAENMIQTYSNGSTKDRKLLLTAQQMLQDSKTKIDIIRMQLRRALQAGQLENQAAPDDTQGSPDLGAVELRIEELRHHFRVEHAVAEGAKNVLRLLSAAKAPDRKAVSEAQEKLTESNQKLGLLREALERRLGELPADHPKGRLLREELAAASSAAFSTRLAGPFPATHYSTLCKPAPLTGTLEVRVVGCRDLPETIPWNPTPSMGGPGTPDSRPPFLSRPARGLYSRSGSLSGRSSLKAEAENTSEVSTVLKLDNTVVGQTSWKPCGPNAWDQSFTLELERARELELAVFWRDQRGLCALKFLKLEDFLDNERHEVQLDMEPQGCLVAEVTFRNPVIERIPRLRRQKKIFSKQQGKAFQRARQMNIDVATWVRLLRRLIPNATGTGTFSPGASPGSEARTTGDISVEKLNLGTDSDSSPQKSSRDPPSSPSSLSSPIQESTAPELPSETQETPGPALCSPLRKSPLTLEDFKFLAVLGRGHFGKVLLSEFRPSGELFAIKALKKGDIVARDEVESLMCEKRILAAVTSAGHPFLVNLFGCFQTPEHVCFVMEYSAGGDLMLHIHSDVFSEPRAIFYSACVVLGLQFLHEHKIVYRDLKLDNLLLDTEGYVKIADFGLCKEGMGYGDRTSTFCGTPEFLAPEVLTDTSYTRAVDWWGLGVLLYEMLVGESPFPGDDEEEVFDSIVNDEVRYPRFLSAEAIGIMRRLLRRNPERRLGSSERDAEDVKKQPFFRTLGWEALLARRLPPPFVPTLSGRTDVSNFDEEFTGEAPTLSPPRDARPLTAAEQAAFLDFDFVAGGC

PLK3 (human) = PLK3 (human) (UniProt Q9H4B4)
PRKCD (human) = PRKCD (human) (UniProt Q05655)
PRKD1 (human) = PRKD1 (human) (UniProt Q15139)
PTK2 (human) = PTK2 (human) (UniProt Q05397)
RAF1 (human) = RAF1 (human) (UniProt P04049)
ROCK2 (human) = ROCK2 (human) (UniProt O75116)
SNRK (human) = SNRK (human) (UniProt Q9NRH2)
TNK1 (human) = TNK1 (human) (UniProt Q13470)
TNNI3K (human) = TNNI3K (human) (UniProt Q59H18)
ULK1 (human) = ULK1 (human) (UniProt O75385)
ULK3 (human) = ULK3 (human) (UniProt Q6PHR2)
WEE2 (human) = WEE2 (human) (UniProt P0C1S8)

Chain of BMPR1B (human) (O00238 whole entry, looked up): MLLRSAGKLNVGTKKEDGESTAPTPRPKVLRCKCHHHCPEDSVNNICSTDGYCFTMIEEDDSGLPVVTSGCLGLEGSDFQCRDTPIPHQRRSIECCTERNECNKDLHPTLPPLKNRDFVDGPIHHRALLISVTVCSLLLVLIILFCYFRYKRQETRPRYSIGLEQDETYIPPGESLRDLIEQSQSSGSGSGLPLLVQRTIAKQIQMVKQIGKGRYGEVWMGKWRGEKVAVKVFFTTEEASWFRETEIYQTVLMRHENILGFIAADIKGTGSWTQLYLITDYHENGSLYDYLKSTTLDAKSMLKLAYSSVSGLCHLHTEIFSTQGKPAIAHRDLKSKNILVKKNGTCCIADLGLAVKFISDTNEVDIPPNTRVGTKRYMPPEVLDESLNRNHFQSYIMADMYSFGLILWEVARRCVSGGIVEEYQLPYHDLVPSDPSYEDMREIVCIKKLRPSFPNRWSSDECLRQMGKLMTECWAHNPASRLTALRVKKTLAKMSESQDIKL

SMILES | kinase still bound, per cent of control (BLK (human)) | kinase still bound, per cent of control (BMPR1B (human)) | kinase still bound, per cent of control (CAMK1G (human)) | kinase still bound, per cent of control (CDK13 (human)) | kinase still bound, per cent of control (CDK4 CCND1 (human)) | kinase still bound, per cent of control (CHEK1 (human)) | kinase still bound, per cent of control (CLK1 (human)) | kinase still bound, per cent of control (CSNK1G3 (human)) | kinase still bound, per cent of control (DAPK3 (human)) | kinase still bound, per cent of control (DCLK2 (human)) | kinase still bound, per cent of control [1] | kinase still bound, per cent of control (EPHA5 (human)) | kinase still bound, per cent of control (EPHB2 (human)) | kinase still bound, per cent of control (ERN1 (human)) | kinase still bound, per cent of control (FGFR3 (human)) | kinase still bound, per cent of control (GSK3B (human)) | kinase still bound, per cent of control (HIPK1 (human)) | kinase still bound, per cent of control (KDR (human)) | kinase still bound, per cent of control (LATS2 (human)) | kinase still bound, per cent of control (MAP2K1 (human)) | other results
COc1cc(C(=O)N2CCC(N3CCN(C)CC3)CC2)ccc1Nc1ncc2c(n1)N(C)c1ccccc1C(=O)N2C | 97% | 100% | 74% | 100% | 100% | 100% | 28% | 93% | 67% | 0.45% | 100% | 95% | 100% | 59% | 80% | 88% | 100% | 84% | 95% | 100% | kinase still bound, per cent of control (MAP3K4 (human)): 100%; kinase still bound, per cent of control (MAP4K3 (human)): 71%; kinase still bound, per cent of control (MAPK10 (human)): 77%; kinase still bound, per cent of control (MAPK7 (human)): 0.05%; kinase still bound, per cent of control (MKNK1 (human)): 50%; kinase still bound, per cent of control (PAK4 (human)): 94%; kinase still bound, per cent of control (PIM3 (human)): 88%; kinase still bound, per cent of control (PKN1 (human)): 100%; kinase still bound, per cent of control (PLK3 (human)): 51%; kinase still bound, per cent of control (PRKCD (human)): 75%; kinase still bound, per cent of control (PRKD1 (human)): 28%; kinase still bound, per cent of control (PTK2 (human)): 34%; kinase still bound, per cent of control (RAF1 (human)): 100%; kinase still bound, per cent of control (ROCK2 (human)): 87%; kinase still bound, per cent of control (SNRK (human)): 94%; kinase still bound, per cent of control (TNK1 (human)): 2.8%; kinase still bound, per cent of control (TNNI3K (human)): 100%; kinase still bound, per cent of control (ULK1 (human)): 80%; kinase still bound, per cent of control (ULK3 (human)): 100%; kinase still bound, per cent of control (WEE2 (human)): 100%
C=CC(=O)Nc1cc(-n2c(=O)ccc3cnc4ccc(-c5cn[nH]c5)cc4c32)ccc1C | 2.4% | 73% | 79% | 100% | 100% | 100% | 0.4% | 84% | 61% | 100% | 63% | 100% | 100% | 50% | 89% | 84% | 52% | 50% | 53% | 69% | kinase still bound, per cent of control (MAP3K4 (human)): 100%; kinase still bound, per cent of control (MAP4K3 (human)): 73%; kinase still bound, per cent of control (MAPK10 (human)): 1.8%; kinase still bound, per cent of control (MAPK7 (human)): 98%; kinase still bound, per cent of control (MKNK1 (human)): 39%; kinase still bound, per cent of control (PAK4 (human)): 100%; kinase still bound, per cent of control (PIM3 (human)): 42%; kinase still bound, per cent of control (PKN1 (human)): 100%; kinase still bound, per cent of control (PLK3 (human)): 99%; kinase still bound, per cent of control (PRKCD (human)): 80%; kinase still bound, per cent of control (PRKD1 (human)): 100%; kinase still bound, per cent of control (PTK2 (human)): 96%; kinase still bound, per cent of control (RAF1 (human)): 100%; kinase still bound, per cent of control (ROCK2 (human)): 72%; kinase still bound, per cent of control (SNRK (human)): 100%; kinase still bound, per cent of control (TNK1 (human)): 73%; kinase still bound, per cent of control (TNNI3K (human)): 100%; kinase still bound, per cent of control (ULK1 (human)): 87%; kinase still bound, per cent of control (ULK3 (human)): 97%; kinase still bound, per cent of control (WEE2 (human)): 95%
CN(C)C/C=C/C(=O)Nc1ccc(C(=O)Nc2cccc(Nc3nccc(-c4cccnc4)n3)c2)cc1 | 100% | 28% | 64% | 86% | 100% | 100% | 4.6% | 100% | 62% | 100% | 87% | 97% | 100% | 70% | 96% | 67% | 6% | 36% | 86% | 92% | kinase still bound, per cent of control (MAP3K4 (human)): 71%; kinase still bound, per cent of control (MAP4K3 (human)): 57%; kinase still bound, per cent of control (MAPK10 (human)): 1.3%; kinase still bound, per cent of control (MAPK7 (human)): 100%; kinase still bound, per cent of control (MKNK1 (human)): 42%; kinase still bound, per cent of control (PAK4 (human)): 83%; kinase still bound, per cent of control (PIM3 (human)): 78%; kinase still bound, per cent of control (PKN1 (human)): 95%; kinase still bound, per cent of control (PLK3 (human)): 35%; kinase still bound, per cent of control (PRKCD (human)): 100%; kinase still bound, per cent of control (PRKD1 (human)): 100%; kinase still bound, per cent of control (PTK2 (human)): 100%; kinase still bound, per cent of control (RAF1 (human)): 100%; kinase still bound, per cent of control (ROCK2 (human)): 41%; kinase still bound, per cent of control (SNRK (human)): 66%; kinase still bound, per cent of control (TNK1 (human)): 20%; kinase still bound, per cent of control (TNNI3K (human)): 100%; kinase still bound, per cent of control (ULK1 (human)): 97%; kinase still bound, per cent of control (ULK3 (human)): 88%; kinase still bound, per cent of control (WEE2 (human)): 100%
